Assay results from PMC7265341, “Quantifying CDK inhibitor selectivity in live cells” (Nature Communications, 2020).
pIC50: −log10 of the molar value. Where two headings read alike, the source gives them in different places.

What was measured:
CDK15/Cyclin Y = CDK15/Cyclin Y (Homo sapiens, UniProt Q96Q40); assay: NanoBRET live-cell target engagement, NanoLuc-CDK15/Cyclin Y in HEK-293; assay type: binding
CDK13/Cyclin K = CDK13/Cyclin K (Homo sapiens, UniProt Q14004); assay: NanoBRET live-cell target engagement, CDK13-NanoLuc/Cyclin K in HEK-293; assay type: binding; conditions: CDK13/K, read-out: Inhibition at 10µM (%)
Sequence of CDK13/Cyclin K (O75909 whole entry): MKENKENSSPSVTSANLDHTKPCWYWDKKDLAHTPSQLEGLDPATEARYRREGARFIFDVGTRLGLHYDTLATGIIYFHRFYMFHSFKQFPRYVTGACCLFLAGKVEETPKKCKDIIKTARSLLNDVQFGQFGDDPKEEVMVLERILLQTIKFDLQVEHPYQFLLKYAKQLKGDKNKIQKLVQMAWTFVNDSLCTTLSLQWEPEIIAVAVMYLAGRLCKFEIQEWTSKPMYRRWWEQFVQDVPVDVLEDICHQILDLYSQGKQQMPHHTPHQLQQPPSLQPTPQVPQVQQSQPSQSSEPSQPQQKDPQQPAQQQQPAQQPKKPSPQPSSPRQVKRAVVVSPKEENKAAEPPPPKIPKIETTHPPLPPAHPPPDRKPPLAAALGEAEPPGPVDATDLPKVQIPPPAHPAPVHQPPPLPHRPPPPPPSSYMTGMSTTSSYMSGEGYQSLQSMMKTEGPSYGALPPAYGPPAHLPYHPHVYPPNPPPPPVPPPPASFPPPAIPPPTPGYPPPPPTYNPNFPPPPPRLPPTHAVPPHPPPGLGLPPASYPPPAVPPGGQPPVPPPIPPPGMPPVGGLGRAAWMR
Sequence of CDK13/Cyclin K (Q14004 other isoform, or with tags, fused parts or gaps): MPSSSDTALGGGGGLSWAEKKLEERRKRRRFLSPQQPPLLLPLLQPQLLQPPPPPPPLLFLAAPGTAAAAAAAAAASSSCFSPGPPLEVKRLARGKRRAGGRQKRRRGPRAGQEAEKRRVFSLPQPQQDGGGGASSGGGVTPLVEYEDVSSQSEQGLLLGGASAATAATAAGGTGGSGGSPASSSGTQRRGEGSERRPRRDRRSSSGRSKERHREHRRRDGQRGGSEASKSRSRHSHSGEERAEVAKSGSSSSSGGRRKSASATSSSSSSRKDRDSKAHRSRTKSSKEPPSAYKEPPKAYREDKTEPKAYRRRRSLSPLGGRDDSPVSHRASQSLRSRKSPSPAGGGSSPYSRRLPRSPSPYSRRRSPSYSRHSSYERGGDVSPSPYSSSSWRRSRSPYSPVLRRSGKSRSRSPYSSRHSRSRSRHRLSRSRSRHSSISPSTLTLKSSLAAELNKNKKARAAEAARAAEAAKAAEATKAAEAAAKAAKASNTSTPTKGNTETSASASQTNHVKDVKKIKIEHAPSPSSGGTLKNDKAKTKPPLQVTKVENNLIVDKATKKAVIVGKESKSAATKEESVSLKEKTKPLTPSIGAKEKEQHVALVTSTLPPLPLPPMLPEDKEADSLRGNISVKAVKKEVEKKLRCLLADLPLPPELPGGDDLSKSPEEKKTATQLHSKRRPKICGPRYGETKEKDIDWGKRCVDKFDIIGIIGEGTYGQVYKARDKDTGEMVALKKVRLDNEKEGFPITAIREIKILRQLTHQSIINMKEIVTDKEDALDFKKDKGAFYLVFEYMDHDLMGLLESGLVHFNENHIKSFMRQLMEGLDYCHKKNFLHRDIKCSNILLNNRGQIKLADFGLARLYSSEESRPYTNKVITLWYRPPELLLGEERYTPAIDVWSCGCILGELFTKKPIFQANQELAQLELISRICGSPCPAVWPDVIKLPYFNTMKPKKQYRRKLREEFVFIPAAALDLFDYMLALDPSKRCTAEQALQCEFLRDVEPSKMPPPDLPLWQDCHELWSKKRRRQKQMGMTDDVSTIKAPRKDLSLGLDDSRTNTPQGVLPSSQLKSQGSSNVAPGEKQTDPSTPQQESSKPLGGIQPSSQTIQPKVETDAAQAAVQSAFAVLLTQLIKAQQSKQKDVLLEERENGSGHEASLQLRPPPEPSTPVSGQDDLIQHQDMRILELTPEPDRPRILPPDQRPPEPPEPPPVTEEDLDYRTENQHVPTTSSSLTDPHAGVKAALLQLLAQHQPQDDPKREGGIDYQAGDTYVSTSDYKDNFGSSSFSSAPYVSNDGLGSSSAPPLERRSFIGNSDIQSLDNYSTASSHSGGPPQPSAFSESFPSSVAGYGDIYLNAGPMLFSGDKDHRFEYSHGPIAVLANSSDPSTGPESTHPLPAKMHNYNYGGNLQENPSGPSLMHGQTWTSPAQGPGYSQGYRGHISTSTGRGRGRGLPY

CDK12/Cyclin K = CDK12/Cyclin K (Homo sapiens, UniProt Q9NYV4); assay: NanoBRET live-cell target engagement, CDK12-NanoLuc/Cyclin K in HEK-293; assay type: binding; conditions: CDK12/K, read-out: Inhibition at 10µM (%)
CDK10/Cyclin L2 = CDK10/Cyclin L2 (Homo sapiens, UniProt Q15131); assay: NanoBRET live-cell target engagement, CDK10-NanoLuc/Cyclin L2 in HEK-293; conditions: read-out: Inhibition at 10µM (%), CDK10/L2
Sequence of CDK10/Cyclin L2 (Q15131 whole entry): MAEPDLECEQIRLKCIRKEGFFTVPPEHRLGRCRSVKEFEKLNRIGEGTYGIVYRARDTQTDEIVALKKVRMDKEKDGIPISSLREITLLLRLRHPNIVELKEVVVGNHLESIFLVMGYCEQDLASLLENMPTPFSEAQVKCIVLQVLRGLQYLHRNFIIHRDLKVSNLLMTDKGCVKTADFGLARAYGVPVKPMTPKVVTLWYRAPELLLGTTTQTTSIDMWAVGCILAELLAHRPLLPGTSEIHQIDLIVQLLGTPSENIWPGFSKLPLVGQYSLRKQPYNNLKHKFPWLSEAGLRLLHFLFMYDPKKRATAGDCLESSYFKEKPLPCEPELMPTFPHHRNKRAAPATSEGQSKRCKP

CDK20/Cyclin H = CDK20/Cyclin H (Homo sapiens, UniProt Q8IZL9); assay: NanoBRET live-cell target engagement, NanoLuc-CDK20/Cyclin H in HEK-293; assay type: binding; conditions: read-out: Inhibition at 10µM (%), CDK20/H
CDK16/Cyclin Y = CDK16/Cyclin Y (Homo sapiens, UniProt Q00536); assay: NanoBRET live-cell target engagement, CDK16-NanoLuc/Cyclin Y in HEK-293; assay type: binding; conditions: CDK16/Y, read-out: Inhibition at 10µM (%)
CDK11B/Cyclin L2 = CDK11B/Cyclin L2 (Homo sapiens, UniProt P21127); assay: NanoBRET live-cell target engagement, CDK11B-NanoLuc/Cyclin L2 in HEK-293; assay type: binding; conditions: CDK11b/L2, read-out: Inhibition at 10µM (%)
Sequence of CDK11B/Cyclin L2 (P21127 1-782 isoform P21127-2): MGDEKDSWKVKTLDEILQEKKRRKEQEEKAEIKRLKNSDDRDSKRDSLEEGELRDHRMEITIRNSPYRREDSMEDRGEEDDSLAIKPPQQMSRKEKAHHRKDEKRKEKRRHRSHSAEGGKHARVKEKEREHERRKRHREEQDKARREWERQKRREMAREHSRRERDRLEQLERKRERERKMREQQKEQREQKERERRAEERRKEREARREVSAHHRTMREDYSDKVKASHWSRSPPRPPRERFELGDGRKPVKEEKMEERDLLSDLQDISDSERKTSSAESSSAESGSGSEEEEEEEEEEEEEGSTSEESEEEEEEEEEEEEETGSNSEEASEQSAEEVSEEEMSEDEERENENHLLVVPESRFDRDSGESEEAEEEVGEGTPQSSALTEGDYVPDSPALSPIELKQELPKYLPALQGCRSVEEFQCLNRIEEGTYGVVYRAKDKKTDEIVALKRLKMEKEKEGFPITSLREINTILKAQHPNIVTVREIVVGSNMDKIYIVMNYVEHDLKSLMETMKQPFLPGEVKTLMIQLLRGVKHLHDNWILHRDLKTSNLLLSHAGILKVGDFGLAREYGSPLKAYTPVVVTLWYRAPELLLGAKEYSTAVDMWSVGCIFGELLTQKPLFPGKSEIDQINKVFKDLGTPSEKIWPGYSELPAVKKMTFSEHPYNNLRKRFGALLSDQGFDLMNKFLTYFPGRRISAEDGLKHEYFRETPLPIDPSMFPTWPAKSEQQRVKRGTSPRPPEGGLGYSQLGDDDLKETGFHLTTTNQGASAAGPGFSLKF

CDK18/Cyclin Y = CDK18/Cyclin Y (Homo sapiens, UniProt Q07002); assay: NanoBRET live-cell target engagement, CDK18-NanoLuc/Cyclin Y in HEK-293; assay type: binding; conditions: CDK18/Y, read-out: Inhibition at 10µM (%)
all 21 human CDKs = assay: Live-cell selectivity profile across all 21 CDK/cyclin complexes in HEK-293; assay type: binding; conditions: remaining CDK family, live HEK-293; read-out: Collateral CDK (potency)
CDK6/Cyclin D1 = CDK6/Cyclin D1 (Homo sapiens, UniProt Q00534); assay: NanoBRET live-cell target engagement, NanoLuc-CDK6/Cyclin D1 in HEK-293; assay type: binding; conditions: read-out: Inhibition at 10µM (%), CDK6/D1
Sequence of CDK6/Cyclin D1 (Q00534 whole entry): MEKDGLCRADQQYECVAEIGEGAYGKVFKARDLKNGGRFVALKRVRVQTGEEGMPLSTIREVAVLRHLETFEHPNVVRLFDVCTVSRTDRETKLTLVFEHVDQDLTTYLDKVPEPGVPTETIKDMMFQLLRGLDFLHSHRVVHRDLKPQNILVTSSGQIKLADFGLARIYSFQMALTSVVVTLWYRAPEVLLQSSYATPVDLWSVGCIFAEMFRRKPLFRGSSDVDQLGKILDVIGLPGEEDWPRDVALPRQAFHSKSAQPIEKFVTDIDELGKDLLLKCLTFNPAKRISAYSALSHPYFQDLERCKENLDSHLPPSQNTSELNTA
Sequence of CDK6/Cyclin D1 (P24385 whole entry partner): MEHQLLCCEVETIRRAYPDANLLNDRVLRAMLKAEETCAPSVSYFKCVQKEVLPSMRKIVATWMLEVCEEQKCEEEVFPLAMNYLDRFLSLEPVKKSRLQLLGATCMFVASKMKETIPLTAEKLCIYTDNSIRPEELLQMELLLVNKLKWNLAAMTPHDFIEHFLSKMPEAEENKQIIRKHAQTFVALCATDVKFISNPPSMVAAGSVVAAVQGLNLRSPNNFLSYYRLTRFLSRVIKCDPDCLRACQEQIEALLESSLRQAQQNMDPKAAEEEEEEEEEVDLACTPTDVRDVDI

CDK14/Cyclin Y = CDK14/Cyclin Y (Homo sapiens, UniProt O94921); assay: NanoBRET live-cell target engagement, CDK14-NanoLuc/Cyclin Y in HEK-293; assay type: binding; conditions: CDK14/Y, read-out: Inhibition at 10µM (%)
CDK17/Cyclin Y = CDK17/Cyclin Y (Homo sapiens, UniProt Q00537); assay: NanoBRET live-cell target engagement, CDK17-NanoLuc/Cyclin Y in HEK-293; assay type: binding; conditions: CDK17/Y, read-out: Inhibition at 10µM (%)
Sequence of CDK17/Cyclin Y (Q00537 whole entry): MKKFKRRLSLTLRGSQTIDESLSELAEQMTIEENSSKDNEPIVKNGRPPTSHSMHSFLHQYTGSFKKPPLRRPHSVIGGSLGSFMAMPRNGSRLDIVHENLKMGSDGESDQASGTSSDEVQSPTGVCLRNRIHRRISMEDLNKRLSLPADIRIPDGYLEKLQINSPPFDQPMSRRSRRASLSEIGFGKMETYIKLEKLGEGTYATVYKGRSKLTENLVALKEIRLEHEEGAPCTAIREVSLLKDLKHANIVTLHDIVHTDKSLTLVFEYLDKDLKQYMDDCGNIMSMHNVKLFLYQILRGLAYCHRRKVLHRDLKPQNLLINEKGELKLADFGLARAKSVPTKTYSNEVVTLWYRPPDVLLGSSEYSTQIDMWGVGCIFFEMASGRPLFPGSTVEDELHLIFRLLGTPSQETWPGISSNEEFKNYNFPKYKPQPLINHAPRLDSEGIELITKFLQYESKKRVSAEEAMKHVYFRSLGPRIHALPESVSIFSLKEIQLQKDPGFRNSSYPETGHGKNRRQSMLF
Sequence of CDK17/Cyclin Y (Q8ND76 whole entry partner): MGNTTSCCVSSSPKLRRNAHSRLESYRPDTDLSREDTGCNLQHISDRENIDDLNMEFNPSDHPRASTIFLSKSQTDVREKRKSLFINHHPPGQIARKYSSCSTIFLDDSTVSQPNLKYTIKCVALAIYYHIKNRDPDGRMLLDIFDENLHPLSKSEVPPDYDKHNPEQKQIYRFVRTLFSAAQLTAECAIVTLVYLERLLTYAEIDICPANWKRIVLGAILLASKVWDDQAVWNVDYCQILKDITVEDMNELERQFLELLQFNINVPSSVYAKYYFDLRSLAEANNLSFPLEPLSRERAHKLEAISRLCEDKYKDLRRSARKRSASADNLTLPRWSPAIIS

CDK8/Cyclin C = CDK8/Cyclin C (Homo sapiens, UniProt P49336); assay: NanoBRET live-cell target engagement, NanoLuc-CDK8/Cyclin C in HEK-293; assay type: binding; conditions: CDK8/C, read-out: Inhibition at 10µM (%)
CDK19/Cyclin C = CDK19/Cyclin C (Homo sapiens, UniProt Q9BWU1); assay: NanoBRET live-cell target engagement, NanoLuc-CDK19/Cyclin C in HEK-293; conditions: read-out: Inhibition at 10µM (%), CDK19/C
CDK11A/Cyclin L2 = target: T1, CDK11A/Cyclin L2 (Homo sapiens, UniProt Q9UQ88); assay: NanoBRET live-cell target engagement, CDK11A-NanoLuc/Cyclin L2 in HEK-293; assay type: binding; conditions: CDK11a/L2, read-out: Inhibition at 10µM (%)
T1 sequence (Q9UQ88 1-783): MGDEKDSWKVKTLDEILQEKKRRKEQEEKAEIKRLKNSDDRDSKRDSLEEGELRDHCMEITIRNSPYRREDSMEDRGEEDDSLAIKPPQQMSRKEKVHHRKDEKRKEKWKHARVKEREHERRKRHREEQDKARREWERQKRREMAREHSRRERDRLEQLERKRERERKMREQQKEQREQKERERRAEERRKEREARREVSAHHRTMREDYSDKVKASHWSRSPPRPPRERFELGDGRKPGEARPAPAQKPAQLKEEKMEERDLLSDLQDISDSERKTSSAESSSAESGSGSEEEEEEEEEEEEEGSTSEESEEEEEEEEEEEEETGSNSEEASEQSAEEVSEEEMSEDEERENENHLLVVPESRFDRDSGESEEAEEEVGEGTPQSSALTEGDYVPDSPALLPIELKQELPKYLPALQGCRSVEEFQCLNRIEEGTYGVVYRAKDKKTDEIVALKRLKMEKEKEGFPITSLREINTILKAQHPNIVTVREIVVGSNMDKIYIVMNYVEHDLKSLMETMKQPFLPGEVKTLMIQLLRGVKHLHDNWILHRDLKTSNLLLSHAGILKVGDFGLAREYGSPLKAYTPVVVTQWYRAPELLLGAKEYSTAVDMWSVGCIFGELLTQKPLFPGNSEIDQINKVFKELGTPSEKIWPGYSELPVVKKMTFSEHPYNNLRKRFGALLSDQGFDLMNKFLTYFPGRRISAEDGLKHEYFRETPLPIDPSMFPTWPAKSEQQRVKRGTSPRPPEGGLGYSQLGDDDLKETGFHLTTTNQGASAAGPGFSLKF

NS(=O)(=O)c1ccc(Nc2nc(OCC3CCCCC3)c3nc[nH]c3n2)cc1 [NU6102]
inhibition at 10 µM (CDK15/Cyclin Y; CDK15/Y, average, read-out: Inhibition at 10µM (%)): 28.3%
inhibition at 10 µM (CDK15/Cyclin Y; CDK15/Y, experiment 2, read-out: Inhibition at 10µM (%)): 10.5%
inhibition at 10 µM (CDK15/Cyclin Y; read-out: Inhibition at 10µM (%), CDK15/Y, experiment 1): 46.2%
inhibition at 10 µM (CDK13/Cyclin K; average): 18.1%
inhibition at 10 µM (CDK13/Cyclin K; experiment 1): 10.3%
inhibition at 10 µM (CDK13/Cyclin K; experiment 2): 25.9%
inhibition at 10 µM (CDK12/Cyclin K; average): 3.2%
inhibition at 10 µM (CDK12/Cyclin K; experiment 1): 8.2%
inhibition at 10 µM (CDK12/Cyclin K; experiment 2): -1.8%
inhibition at 10 µM (CDK10/Cyclin L2; average): 64%
inhibition at 10 µM (CDK10/Cyclin L2; experiment 1): 47.6%
inhibition at 10 µM (CDK10/Cyclin L2; experiment 2): 80.4%
inhibition at 10 µM (CDK20/Cyclin H; experiment 1): 59%
inhibition at 10 µM (CDK20/Cyclin H; experiment 2): 76.6%
inhibition at 10 µM (CDK16/Cyclin Y; experiment 1): 66.5%
inhibition at 10 µM (CDK16/Cyclin Y; experiment 2): 85.2%
inhibition at 10 µM (CDK11B/Cyclin L2; average): 27.3%
inhibition at 10 µM (CDK11B/Cyclin L2; experiment 1): 13.2%
inhibition at 10 µM (CDK11B/Cyclin L2; experiment 2): 41.4%
inhibition at 10 µM (CDK18/Cyclin Y; average): 30.2%
inhibition at 10 µM (CDK18/Cyclin Y; experiment 1): 20.4%
inhibition at 10 µM (CDK18/Cyclin Y; experiment 2): 40.1%
pIC50 (all 21 human CDKs): < 6.00
inhibition at 10 µM (CDK6/Cyclin D1; average): 82.2%
inhibition at 10 µM (CDK6/Cyclin D1; experiment 1): 70.6%
inhibition at 10 µM (CDK6/Cyclin D1; experiment 2): 93.7%
inhibition at 10 µM (CDK14/Cyclin Y; average): 13.8%
inhibition at 10 µM (CDK14/Cyclin Y; experiment 1): 9.9%
inhibition at 10 µM (CDK14/Cyclin Y; experiment 2): 17.7%
inhibition at 10 µM (CDK17/Cyclin Y; average): 44.7%
inhibition at 10 µM (CDK17/Cyclin Y; experiment 1): 40.2%
inhibition at 10 µM (CDK17/Cyclin Y; experiment 2): 49.2%
inhibition at 10 µM (CDK8/Cyclin C; average): 11.3%
inhibition at 10 µM (CDK8/Cyclin C; experiment 1): 17.2%
inhibition at 10 µM (CDK8/Cyclin C; experiment 2): 5.4%
inhibition at 10 µM (CDK19/Cyclin C; average): 13%
inhibition at 10 µM (CDK19/Cyclin C; experiment 1): 21%
inhibition at 10 µM (CDK19/Cyclin C; experiment 2): 4.9%
inhibition at 10 µM (CDK11A/Cyclin L2; average): 14%
inhibition at 10 µM (CDK11A/Cyclin L2; experiment 1): 10.4%
inhibition at 10 µM (CDK11A/Cyclin L2; experiment 2): 17.6%
